Measured values as given in US8247211B2, “Glycopeptide antibiotics” (American Cyanamid Company, priority 2001, dated 2012).
In brackets after ≈: the same amount, converted by molar mass. Blank lines part the entries; values can stand above or below the compound they belong to. Numbered stars: 1 amine (or outer) side, 2 acyl side, 3 side chain; on linkers, the order of the positions; unused ones are H or OH. Square brackets hold non-standard residues; d marks the D form. Peptide text beside a SMILES is read from it. * marks the point of attachment. ξ: configuration not given here. X1 = N=C1NCC(C(O)C(N[*:1])C(=O)[*:2])N1C1OC(CO)C(O)C(O)C1O; ξEnduracididine(βξ-OH,4'ξ) = N=C1NCC(C(O)C(N)C(=O)O)N1; X2 = OCC1OC(OC2C(CO)OC(*)C(O)C2O)C(O)C(O)C1O; ξCha(3ξ-Me) = CC(C1CCCCC1)C(N)C(=O)O

Assays:
Test in all cases: In vitro antibacterial evaluation: minimum inhibitory concentration (MIC), broth dilution method
Assay type in all cases: cell-based
Enterococcus sp. = conditions: broth dilution, 18 hours at 35° C.
Summary of the method: (§1)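 NCCLS M7-A2 broth dilution; Muller-Hinton II […]; 5×10^5 CFU/mL; 64-0.06 μg/mL. MIC = lowest concentration with no growth.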

Staphylococcus sp. = conditions: broth dilution, 18 hours at 35° C.; for MIC Staphylococcus aureus-SMITH (GC 4543): strain SMITH GC 4543
Summary of the method: as §1

Streptococcus sp. = conditions: broth dilution, 18 hours at 35° C.
Summary of the method: as §1

Escherichia coli = conditions: broth dilution, 18 hours at 35° C.
[1] = Enterococcus faecalis (ATCC 29212)
[2] = Enterococcus faecalis (GC 2242)
[3] = Enterococcus faecalis (GC 2691)
[4] = Enterococcus faecalis (GC 3059)
[5] = Enterococcus faecalis (GC 4552)
[6] = Enterococcus faecalis (GC 4553)
[7] = Enterococcus faecalis (GC 4554)
[8] = Enterococcus faecalis (GC 6189)
[9] = Streptococcus agalactiae (GC 4564)
[10] = Streptococcus pneumoniae (ATCC 6301)
[11] = Streptococcus pneumoniae (GC 1894)
[12] = Streptococcus pneumoniae (GC 4565)
[13] = Streptococcus pyogenes (GC 4563)

- MIC Enterococcus avium (GC 4558) (Enterococcus sp.; Enterococcus avium (GC 4558)): 4 µg/mL (≈ 3.39 µM)
- MIC Enterococcus faecalis (ATCC 29212) (Enterococcus sp.; [1]): 16 µg/mL (≈ 13.6 µM)
- MIC Enterococcus faecalis (GC 2242) (Enterococcus sp.; [2]): 16 µg/mL (≈ 13.6 µM)
- MIC Enterococcus faecalis (GC 2691) (Enterococcus sp.; [3]): 16 µg/mL (≈ 13.6 µM)
- MIC Enterococcus faecalis (GC 3059) (Enterococcus sp.; [4]): 32 µg/mL (≈ 27.1 µM)
- MIC Enterococcus faecalis (GC 4552) (Enterococcus sp.; [5]): 2 µg/mL (≈ 1.69 µM)
- MIC Enterococcus faecalis (GC 4553) (Enterococcus sp.; [6]): 4 µg/mL (≈ 3.39 µM)
- MIC Enterococcus faecalis (GC 4554) (Enterococcus sp.; [7]): 16 µg/mL (≈ 13.6 µM)
- MIC Enterococcus faecalis (GC 6189) (Enterococcus sp.; [8]): 16 µg/mL (≈ 13.6 µM)
- MIC Enterococcus faecium (GC 2243) (Enterococcus sp.; Enterococcus faecium (GC 2243)): 8 µg/mL (≈ 6.78 µM)
- MIC Enterococcus faecium (GC 4556) (Enterococcus sp.; Enterococcus faecium (GC 4556)): 8 µg/mL (≈ 6.78 µM)
- MIC Enterococcus faecium (GC 4557) (Enterococcus sp.; Enterococcus faecium (GC 4557)): 2 µg/mL (≈ 1.69 µM)
- MIC Enterococcus avium (GC 4558) (Enterococcus sp.): 4 µg/mL (≈ 3.39 µM)
- MIC Enterococcus faecalis (ATCC 29212) (Enterococcus sp.): 16 µg/mL (≈ 13.6 µM)
- MIC Enterococcus faecalis (GC 2242) (Enterococcus sp.): 16 µg/mL (≈ 13.6 µM)
- MIC Enterococcus faecalis (GC 2691) (Enterococcus sp.): 16 µg/mL (≈ 13.6 µM)
- MIC Enterococcus faecalis (GC 3059) (Enterococcus sp.): 32 µg/mL (≈ 27.1 µM)
- MIC Enterococcus faecalis (GC 4552) (Enterococcus sp.): 2 µg/mL (≈ 1.69 µM)
- MIC Enterococcus faecalis (GC 4553) (Enterococcus sp.): 4 µg/mL (≈ 3.39 µM)
- MIC Enterococcus faecalis (GC 4554) (Enterococcus sp.): 16 µg/mL (≈ 13.6 µM)
- MIC Enterococcus faecalis (GC 6189) (Enterococcus sp.): 16 µg/mL (≈ 13.6 µM)
- MIC Enterococcus faecium (GC 2243) (Enterococcus sp.): 8 µg/mL (≈ 6.78 µM)
- MIC Enterococcus faecium (GC 4556) (Enterococcus sp.): 8 µg/mL (≈ 6.78 µM)
- MIC Enterococcus faecium (GC 4557) (Enterococcus sp.): 2 µg/mL (≈ 1.69 µM)
- MIC Coagulase Negative Staphylococcus (GC 4547) (Staphylococcus sp.): 4 µg/mL (≈ 3.39 µM)
- MIC Coagulase Negative Staphylococcus (GC 4548) (Staphylococcus sp.): 2 µg/mL (≈ 1.69 µM)
- MIC Coagulase Negative Staphylococcus (GC 4549) (Staphylococcus sp.): 1 µg/mL (≈ 0.847 µM)
- MIC Coagulase Negative Staphylococcus (GC 4551) (Staphylococcus sp.): 4 µg/mL (≈ 3.39 µM)
- MIC Staphylococcus aureus SMITH (GC 4543) (Staphylococcus sp.): 2 µg/mL (≈ 1.69 µM)
- MIC Staphylococcus aureus-SMITH (GC 4543) (Staphylococcus sp.): 2 µg/mL (≈ 1.69 µM)
- MIC Streptococcus agalactiae (GC 4564) (Streptococcus sp.; [9]): 4 µg/mL (≈ 3.39 µM)
- MIC Streptococcus pneumoniae (ATCC 6301) (Streptococcus sp.; [10]): 8 µg/mL (≈ 6.78 µM)
- MIC Streptococcus pneumoniae (GC 1894) (Streptococcus sp.; [11]): 8 µg/mL (≈ 6.78 µM)
- MIC Streptococcus pneumoniae (GC 4565) (Streptococcus sp.; [12]): 8 µg/mL (≈ 6.78 µM)
- MIC Streptococcus pyogenes (GC 4563) (Streptococcus sp.; [13]): 2 µg/mL (≈ 1.69 µM)
- MIC Streptococcus agalactiae (GC 4564) (Streptococcus sp.): 4 µg/mL (≈ 3.39 µM)
- MIC Streptococcus pneumoniae (ATCC 6301) (Streptococcus sp.): 8 µg/mL (≈ 6.78 µM)
- MIC Streptococcus pneumoniae (GC 1894) (Streptococcus sp.): 8 µg/mL (≈ 6.78 µM)
- MIC Streptococcus pneumoniae (GC 4565) (Streptococcus sp.): 8 µg/mL (≈ 6.78 µM)
- MIC Streptococcus pyogenes (GC 4563) (Streptococcus sp.): 2 µg/mL (≈ 1.69 µM)
- MIC Escherichia coli (ATCC 25922) (Escherichia coli): 16 µg/mL (≈ 13.6 µM)
- MIC Escherichia coli (GC 4559) (Escherichia coli): 8 µg/mL (≈ 6.78 µM)
- MIC Escherichia coli (GC 4560) (Escherichia coli): 4 µg/mL (≈ 3.39 µM)
SMILES: CC(c1ccccc1)C1NC(=O)CNC(=O)C(CO)NC(=O)C(C(O)C2CNC(=N)N2C2OC(CO)C(O)C(O)C2O)NC(=O)C(C(O)C2CNC(=N)N2)NC(=O)C(Cc2ccc3oc(SCC(=O)c4ccc(Cl)cc4)nc3c2)NC1=O (stereo not shown) [Example 49]
- MIC Staphylococcus haemolyticus (GC 4546) (Staphylococcus sp.): 1 µg/mL (≈ 0.847 µM)

- MIC Enterococcus avium (GC 4558) (Enterococcus sp.; Enterococcus avium (GC 4558)): 64 µg/mL (≈ 49.2 µM)
- MIC Enterococcus faecalis (ATCC 29212) (Enterococcus sp.; [1]): >64 µg/mL
- MIC Enterococcus faecalis (GC 2242) (Enterococcus sp.; [2]): 64 µg/mL (≈ 49.2 µM)
- MIC Enterococcus faecalis (GC 2691) (Enterococcus sp.; [3]): >64 µg/mL
- MIC Enterococcus faecalis (GC 3059) (Enterococcus sp.; [4]): >64 µg/mL
- MIC Enterococcus faecalis (GC 4552) (Enterococcus sp.; [5]): >64 µg/mL
- MIC Enterococcus faecalis (GC 4553) (Enterococcus sp.; [6]): >64 µg/mL
- MIC Enterococcus faecalis (GC 4554) (Enterococcus sp.; [7]): >64 µg/mL
- MIC Enterococcus faecalis (GC 6189) (Enterococcus sp.; [8]): >64 µg/mL
- MIC Enterococcus faecium (GC 2243) (Enterococcus sp.; Enterococcus faecium (GC 2243)): >64 µg/mL
- MIC Enterococcus faecium (GC 4556) (Enterococcus sp.; Enterococcus faecium (GC 4556)): >64 µg/mL
- MIC Enterococcus faecium (GC 4557) (Enterococcus sp.; Enterococcus faecium (GC 4557)): 16 µg/mL (≈ 12.3 µM)
- MIC Enterococcus avium (GC 4558) (Enterococcus sp.): 64 µg/mL (≈ 49.2 µM)
- MIC Enterococcus faecalis (ATCC 29212) (Enterococcus sp.): >64 µg/mL
- MIC Enterococcus faecalis (GC 2242) (Enterococcus sp.): 64 µg/mL (≈ 49.2 µM)
- MIC Enterococcus faecalis (GC 2691) (Enterococcus sp.): >64 µg/mL
- MIC Enterococcus faecalis (GC 3059) (Enterococcus sp.): >64 µg/mL
- MIC Enterococcus faecalis (GC 4552) (Enterococcus sp.): >64 µg/mL
- MIC Enterococcus faecalis (GC 4553) (Enterococcus sp.): >64 µg/mL
- MIC Enterococcus faecalis (GC 4554) (Enterococcus sp.): >64 µg/mL
- MIC Enterococcus faecalis (GC 6189) (Enterococcus sp.): >64 µg/mL
- MIC Enterococcus faecium (GC 2243) (Enterococcus sp.): >64 µg/mL
- MIC Enterococcus faecium (GC 4556) (Enterococcus sp.): >64 µg/mL
- MIC Enterococcus faecium (GC 4557) (Enterococcus sp.): 16 µg/mL (≈ 12.3 µM)
- MIC Coagulase Negative Staphylococcus (GC 4547) (Staphylococcus sp.): 16 µg/mL (≈ 12.3 µM)
- MIC Coagulase Negative Staphylococcus (GC 4548) (Staphylococcus sp.): 16 µg/mL (≈ 12.3 µM)
- MIC Coagulase Negative Staphylococcus (GC 4549) (Staphylococcus sp.): 4 µg/mL (≈ 3.07 µM)
- MIC Coagulase Negative Staphylococcus (GC 4551) (Staphylococcus sp.): 64 µg/mL (≈ 49.2 µM)
- MIC Staphylococcus aureus SMITH (GC 4543) (Staphylococcus sp.): 32 µg/mL (≈ 24.6 µM)
- MIC Staphylococcus aureus-SMITH (GC 4543) (Staphylococcus sp.): 32 µg/mL (≈ 24.6 µM)
- MIC Streptococcus agalactiae (GC 4564) (Streptococcus sp.; [9]): 16 µg/mL (≈ 12.3 µM)
- MIC Streptococcus pneumoniae (ATCC 6301) (Streptococcus sp.; [10]): 8 µg/mL (≈ 6.15 µM)
- MIC Streptococcus pneumoniae (GC 1894) (Streptococcus sp.; [11]): 4 µg/mL (≈ 3.07 µM)
- MIC Streptococcus pneumoniae (GC 4565) (Streptococcus sp.; [12]): 8 µg/mL (≈ 6.15 µM)
- MIC Streptococcus pyogenes (GC 4563) (Streptococcus sp.; [13]): 8 µg/mL (≈ 6.15 µM)
- MIC Streptococcus agalactiae (GC 4564) (Streptococcus sp.): 16 µg/mL (≈ 12.3 µM)
- MIC Streptococcus pneumoniae (ATCC 6301) (Streptococcus sp.): 8 µg/mL (≈ 6.15 µM)
- MIC Streptococcus pneumoniae (GC 1894) (Streptococcus sp.): 4 µg/mL (≈ 3.07 µM)
- MIC Streptococcus pneumoniae (GC 4565) (Streptococcus sp.): 8 µg/mL (≈ 6.15 µM)
- MIC Streptococcus pyogenes (GC 4563) (Streptococcus sp.): 8 µg/mL (≈ 6.15 µM)
- MIC Escherichia coli (ATCC 25922) (Escherichia coli): >64 µg/mL
- MIC Escherichia coli (GC 4559) (Escherichia coli): 64 µg/mL (≈ 49.2 µM)
- MIC Escherichia coli (GC 4560) (Escherichia coli): 8 µg/mL (≈ 6.15 µM)
SMILES: CC(C1CCCCC1)C1NC(=O)CNC(=O)C(CO)NC(=O)C(C(O)C2CNC(=N)N2C2OC(CO)C(O)C(O)C2O)NC(=O)C(C(O)C2CNC(=N)N2)NC(=O)C(Cc2ccc(OC3OC(CO)C(OC4OC(CO)C(O)C(O)C4O)C(O)C3O)cc2)NC1=O (stereo not drawn) [Example 51, Cyclo[3-cyclohexyl-2-aminobutyl-O-(4-O-hexopyranosylhexopyranosyl)tyrosyl-3-(2-iminoimidazolidin-4-yl)seryl-3-(3-hexopyranosyl-2-iminoimidazolidin-4-yl)-serylserylglycyl]] (cyclo(G[ξCha(3ξ-Me)]Y(X2)[ξEnduracididine(βξ-OH,4'ξ)][X1]S); configuration not given here)
- MIC Staphylococcus haemolyticus (GC 4546) (Staphylococcus sp.): 32 µg/mL (≈ 24.6 µM)
